In PubChem BioAssay (NCI) one finds GI50 and TGI data, which are given here for eleven molecules.

Test systems include EKVX NSCLC; HCT-15 colon; M14 melanoma; PC-3 prostate; SF-295 CNS; SK-MEL-28 melanoma; SR leukemia; U251 CNS; UACC-62 melanoma; HOP-62 NSCLC.
Common to all, as to experiment: growth of human tumour cells (NCI), 48 h

Each structure is given as a SMILES string. “And” between values parts separate entries of the source, which are not always exact repeats. Equal values may be shown once.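 These data come from cells grown in 96-well plates and exposed to compound for 48 hours at five concentrations. GI50 marks 50% less growth. TGI: total growth inhibition.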

`O=C1C[C@@H]2/C(=C(O)\C=C\c3ccccc3)C(=O)C=C[C@@H]2O1`: the GI50 in the assay with EKVX NSCLC was 13 µM; in the assay on HCT-15 colon, 1.3 µM; with M14 melanoma, 0.435 µM; in the assay with PC-3 prostate, 1.95 µM; with SF-295 CNS it was 3.44 µM; in the assay with SK-MEL-28 melanoma it was 2.33 µM. For the same molecule, the GI50 is 0.464 µM in the assay with SR leukemia, 1.56 µM in the assay on U251 CNS and 3 µM with UACC-62 melanoma. In addition, the TGI with EKVX NSCLC amounted to 26 µM; in the assay on HCT-15 colon, 3.69 µM; in the assay on M14 melanoma it was 2.63 µM; in the assay with PC-3 prostate, 4.9 µM; in the assay on SF-295 CNS, 13.7 µM; in the assay with SK-MEL-28 melanoma, 6.56 µM. Also, the TGI stood at 17 µM in the assay with SR leukemia, 3.41 µM in the assay with U251 CNS and 12.2 µM with UACC-62 melanoma.
For the molecule `S=P(N1CC1)(N1CC1)N1CC1`, the GI50 is 26.2 µM in the assay with HCT-15 colon, 310 µM in the assay on PC-3 prostate, 6.78 µM in the assay on SF-295 CNS and 34.7 µM in the assay with SK-MEL-28 melanoma. Moreover, the TGI in the assay on PC-3 prostate is 805 µM and 834 µM; in the assay with SK-MEL-28 melanoma, 72.6 µM and 574 µM; in the assay with SR leukemia it was > 51.4 µM and 441 µM.
With `O=c1c(O)c(-c2cc(O)c(O)c(O)c2)oc2cc(O)cc(O)c12`, the TGI in the assay on HCT-15 colon was 71.8 µM; with HOP-62 NSCLC, 41.4 µM; in the assay with M14 melanoma, over 100 µM; in the assay with PC-3 prostate, over 100 µM; with SF-295 CNS, 36.3 µM; in the assay with SK-MEL-28 melanoma, over 100 µM. For the same molecule, the TGI was over 100 µM in the assay on SR leukemia, 32.8 µM with U251 CNS and over 100 µM in the assay with UACC-62 melanoma.
Regarding `Oc1ccc2oc3ncc(Br)c(-c4ccccc4)c3c2c1`, the GI50 in the assay with EKVX NSCLC, in the assay with HCT-15 colon, with HOP-62 NSCLC, in the assay on M14 melanoma, in the assay on PC-3 prostate and in the assay with SF-295 CNS was over 100 µM each time. Further, the GI50 with SK-MEL-28 melanoma was over 100 µM; in the assay on SR leukemia, 30.4 µM; in the assay with U251 CNS it was over 100 µM. Further, the TGI in the assay with EKVX NSCLC, in the assay on HCT-15 colon, in the assay with HOP-62 NSCLC, with M14 melanoma, in the assay on PC-3 prostate and in the assay with SF-295 CNS was over 100 µM each time. Further, the TGI in the assay with SK-MEL-28 melanoma, in the assay with SR leukemia and in the assay on U251 CNS was over 100 µM throughout.
With `C=C1C(=O)O[C@H]2[C@H]1CC/C(Cn1cc(-c3ccccc3C(F)(F)F)nn1)=C\CC[C@@]1(C)O[C@@H]21`, the GI50 in the assay on EKVX NSCLC is 2.32 µM; with HCT-15 colon, 1.05 µM; in the assay on HOP-62 NSCLC, 4.72 µM; in the assay on M14 melanoma, 2.15 µM; with PC-3 prostate, 4.32 µM; with SF-295 CNS, 10.3 µM. Moreover, the results for the GI50 with SK-MEL-28 melanoma and in the assay with U251 CNS were 1.75 µM and 1.83 µM, respectively. Moreover, the TGI was 7.12 µM in the assay with EKVX NSCLC; 2.43 µM in the assay with HCT-15 colon; 18.7 µM in the assay on HOP-62 NSCLC; 5.13 µM in the assay on M14 melanoma; 15.3 µM with PC-3 prostate; 22.6 µM with SF-295 CNS. For the same molecule, the TGI with SK-MEL-28 melanoma was 3.47 µM; in the assay with U251 CNS, 3.83 µM.
For the molecule `COc1cc(C2CC(c3ccc(Nc4ccnc5cc(Cl)ccc45)cc3)=NN2c2ccc(Cl)cc2)cc(OC)c1OC` (stereo not drawn), the GI50 in the assay on HCT-15 colon was 0.877 µM; in the assay with HOP-62 NSCLC, 2.14 µM; in the assay on M14 melanoma, 2.01 µM; with PC-3 prostate, 1.47 µM; with SF-295 CNS, 2.02 µM; in the assay on SK-MEL-28 melanoma it was 2.66 µM. Moreover, the GI50 in the assay with SR leukemia is 1.2 µM; with U251 CNS, 2.91 µM; with UACC-62 melanoma, 1.17 µM. For the same molecule, the TGI was over 100 µM in the assay with HCT-15 colon; 47.5 µM in the assay on HOP-62 NSCLC; 9.61 µM with M14 melanoma; over 100 µM in the assay on PC-3 prostate; 8.32 µM in the assay with SF-295 CNS; 55.9 µM with SK-MEL-28 melanoma. For the same molecule, the TGI was 56.3 µM with SR leukemia, over 100 µM with U251 CNS and 5.54 µM in the assay on UACC-62 melanoma.
`CN(C)CCCNC(=O)c1cc(NC(=O)c2cc(NC(=O)CCNS(=O)(=O)c3ccc4c(c3)C(=O)c3ccccc3C4=O)cn2C)cn1C`: the GI50 in the assay on EKVX NSCLC is over 100 µM; with PC-3 prostate, over 100 µM; in the assay on SF-295 CNS it was over 100 µM; in the assay with SR leukemia, 85.9 µM; in the assay with U251 CNS it was over 100 µM; in the assay on UACC-62 melanoma it was over 100 µM. Moreover, the TGI with EKVX NSCLC, in the assay with PC-3 prostate, in the assay with SF-295 CNS, with SR leukemia, with U251 CNS and with UACC-62 melanoma was over 100 µM each time.
For the molecule `CN(C)CCNC(=O)c1ccc(NC(=O)c2nc([N+](=O)[O-])cn2C)cc1`, the TGI with HCT-15 colon, in the assay on HOP-62 NSCLC, in the assay on M14 melanoma, in the assay on PC-3 prostate, in the assay with SF-295 CNS and in the assay with SK-MEL-28 melanoma was over 100 µM each time. For the same molecule, the TGI with SR leukemia, with U251 CNS and in the assay on UACC-62 melanoma was over 100 µM in each case.
Turning to `CCCSS[C@H]1NC(=O)[C@H]1NC(=O)COc1ccccc1`, the TGI in the assay on EKVX NSCLC is 41.4 µM; in the assay on HCT-15 colon it was 24.9 µM; in the assay on HOP-62 NSCLC, over 100 µM; in the assay on M14 melanoma, 24.4 µM; in the assay with SF-295 CNS, over 100 µM; in the assay on SK-MEL-28 melanoma, 30.3 µM. For the same molecule, the TGI with SR leukemia is 19.6 µM; with U251 CNS it was 31.8 µM; in the assay on UACC-62 melanoma, 32.1 µM.
As to `O=C1c2ccccc2-c2c1c1ccccc1c(=O)n2CCCn1ccnc1`, the GI50 was 9.09 µM in the assay with EKVX NSCLC; 1.9 µM in the assay on HCT-15 colon; 2.72 µM with HOP-62 NSCLC; 5.71 µM with M14 melanoma; 2.04 µM with PC-3 prostate; 0.896 µM in the assay with SF-295 CNS. Besides, the GI50 in the assay on SK-MEL-28 melanoma is 3.47 µM; with U251 CNS, 0.793 µM; with UACC-62 melanoma it was 0.791 µM. For the same molecule, the TGI in the assay on EKVX NSCLC is over 100 µM; in the assay with HCT-15 colon it was over 100 µM; in the assay with HOP-62 NSCLC it was 13 µM; in the assay with M14 melanoma it was over 100 µM; in the assay with PC-3 prostate it was over 100 µM; with SF-295 CNS, 2.99 µM. For the same molecule, the TGI with SK-MEL-28 melanoma is over 100 µM; with U251 CNS, 6.83 µM; in the assay with UACC-62 melanoma it was 2.29 µM.
As for `C=CCC1C(=O)CC2(C)CC(=O)C(CC=C)C12C` (stereo not drawn), the TGI in the assay with EKVX NSCLC, with HCT-15 colon, in the assay on HOP-62 NSCLC, in the assay with M14 melanoma, in the assay with SF-295 CNS and with SK-MEL-28 melanoma was over 100 µM throughout. The TGI in the assay on SR leukemia, with U251 CNS and with UACC-62 melanoma was over 100 µM throughout.
